The values below come from patent US12521375B2, “Pharmaceutical composition for treating fatty liver disease” (Shionogi & Co., Ltd., priority 2020, dated 2026).

Read-outs that look alike come from different tables or passages of the source. Some results are limits rather than exact numbers.

One series addresses recombinant human ACC1 (Homo sapiens (Human), UniProt Q13085). The series can be described thus: Measurement of inhibitory activity of human ACC1. The format is biochemical. The conditions noted are these: read-out: IC50 hACC1. An excerpt: A cDNA encoding human ACC1 protein (1 amino acid residue to 2346 amino acid residues from the N-terminus) was cloned from a human liver cDNA library (BioChain Institute Inc.), myc tag and His-tag sequences were introduced at the 3′ end, and then inserted into pIEXBAC3 (Novagen). A recombinant baculovirus was produced in accordance with the protocol for FlashBACGOLD (Oxford Expression Technologies Ltd.), and Sf-9 cells were infected therewith to express human ACC1 protein. The recovered cells were crushed, filtered through a filter, and then subjected to Ni affinity chromatography and anion exchange chromatography. Fractions containing human ACC1 protein were collected to obtain recombinant human ACC1.
(§1) The recombinant human ACC1 and the recombinant human ACC2 obtained from the above Preparation Examples were preincubated in an assay buffer (50 mM HEPES-KOH (pH 7.4), 10 mM magnesium chloride, 6 to 10 mM potassium citrate, 4 mM reduced glutathione, and 1.5 mg/ml bovine serum albumin) for 1 hour. Then, 5 μL of the pre-incubated enzyme solution and 5 μL of a substrate solution (50 mM HEPES-KOH (pH 7.4), 1 mM ATP, 0.8 mM acetyl-CoA, and 25 to 50 mM potassium bicarbonate) were added to a 384-well microplate into which 0.2 μL of each of solutions of the compound of the present invention (DMSO) had been dispensed, and the mixture was centrifuged and shaken, and then incubated in a wet box at room temperature for 1 to 3 hours. After incubation, the enzymatic reaction was stopped by addition of EDTA, and then the compound was co-crystallized with an α-cyano-4-hydroxy cinnamic acid (CHCA) matrix on a MALDI target plate, and measurement was performed in a reflector negative mode using a matrix-assisted laser desorption ionization-time-of-flight mass spectrometer (MALDI-TOF MS). Deprotonated ions of the substrate acetyl-CoA (AcCoA) and the reaction product malonyl-CoA (MalCoA) were detected, and the intensity of each signal was used to calculate a conversion rate to malonyl-CoA […], i.e., intensity of [MalCoA-H]-/(intensity of [MalCoA-H]-+intensity of [AcCoA-H]-). […] The potassium citrate concentration in the assay buffer, the potassium bicarbonate concentration in the substrate solution, and the incubation time were adjusted within the above concentrations or reaction times for each lot of the enzyme to be used.

Another series deals with recombinant human ACC2 (Homo sapiens (Human), UniProt O00763). The series can be described thus: Measurement of inhibitory activity of human ACC2. The format is biochemical. The conditions noted are these: read-out: IC50 hACC2.
Description: A cDNA encoding human ACC2 protein (27 amino acid residues to 2458 amino acid residues from the N-terminus) was cloned from a human kidney cDNA library (Clontech Laboratories, Inc.), a His-tag sequence was introduced at the 5′ end, and then inserted into pFastBac1 (Invitrogen). A recombinant baculovirus was produced in accordance with the protocol for a Bac-to-Bac baculovirus expression system (Invitrogen), and Sf-9 cells were infected therewith to express human ACC2 protein. The recovered cells were crushed, filtered through a filter, and then subjected to Ni affinity chromatography and anion exchange chromatography. Fractions containing human ACC2 protein were collected to obtain recombinant human ACC2.
as §1, with “Then, 5 μL of the pre-incubated enzyme solution and 5 μL of a substrate solution (50 mM HEPES-KOH (pH 7.4), 1 mM ATP, 0.8 mM acetyl-CoA, and 25 to 50 mM potassium bicarbonate) were added to a 384-well microplate into which 0.2 μL of each of solutions of the compound of the present invention (DMSO) had been dispensed, and the mixture was centrifuged and shaken, and then incubated in a wet box at room temperature for 1 to 3 hours.” left out

A further series deals with NAFLD patients. The conditions noted are these: cited from earlier work.
A short description of series [1]: Metabolic stability test (human). The conditions noted are these: human liver microsomes, 37° C., 30 minutes, NADPH. The format is in vitro ADME. As for the experimental part: (§2) Commercially available pooled human liver microsomes were reacted with the compound of the present invention for a given time. A residual rate was calculated by comparison between the reacted sample and the unreacted sample to evaluate a degree at which the compound of the present invention is metabolized in the liver.
(§3) The compound was reacted at 37° C. for 0 minutes or 30 minutes in the presence of 1 mmol/L NADPH in 0.2 mL of a buffer (50 mmol/L Tris-HCl pH 7.4, 150 mmol/L potassium chloride, and 10 mmol/L magnesium chloride) containing 0.5 mg protein/mL of the human liver microsomes (oxidative reaction). After the reaction, 50 μL of the reaction solution was added to 100 μL of a solution of methanol/acetonitrile=1/1 (v/v) and mixed, and the mixture was centrifuged at 3000 rpm for 15 minutes. The compound of the present invention in the centrifuged supernatant was quantified by LC/MS/MS or solid-phase extraction (SPE)/MS. The amount of the compound of the present invention remained after the reaction was calculated with the amount of the compound at 0 minutes of the reaction defined as 100%.
Background: Liver microsomes are vesicles of endoplasmic reticulum, rich in cytochrome P450 enzymes.

Series [2] is described as follows: Metabolic stability test (rat). The format is in vitro ADME. As for the experimental part: [Worded in the source for another species; this species is reported under the same test.] as §2, §3
The test system of a further series is healthy subjects. The conditions noted are these: repeated administration to healthy subjects; cited from earlier work.

Chain of recombinant human ACC2 (O00763 27-2458): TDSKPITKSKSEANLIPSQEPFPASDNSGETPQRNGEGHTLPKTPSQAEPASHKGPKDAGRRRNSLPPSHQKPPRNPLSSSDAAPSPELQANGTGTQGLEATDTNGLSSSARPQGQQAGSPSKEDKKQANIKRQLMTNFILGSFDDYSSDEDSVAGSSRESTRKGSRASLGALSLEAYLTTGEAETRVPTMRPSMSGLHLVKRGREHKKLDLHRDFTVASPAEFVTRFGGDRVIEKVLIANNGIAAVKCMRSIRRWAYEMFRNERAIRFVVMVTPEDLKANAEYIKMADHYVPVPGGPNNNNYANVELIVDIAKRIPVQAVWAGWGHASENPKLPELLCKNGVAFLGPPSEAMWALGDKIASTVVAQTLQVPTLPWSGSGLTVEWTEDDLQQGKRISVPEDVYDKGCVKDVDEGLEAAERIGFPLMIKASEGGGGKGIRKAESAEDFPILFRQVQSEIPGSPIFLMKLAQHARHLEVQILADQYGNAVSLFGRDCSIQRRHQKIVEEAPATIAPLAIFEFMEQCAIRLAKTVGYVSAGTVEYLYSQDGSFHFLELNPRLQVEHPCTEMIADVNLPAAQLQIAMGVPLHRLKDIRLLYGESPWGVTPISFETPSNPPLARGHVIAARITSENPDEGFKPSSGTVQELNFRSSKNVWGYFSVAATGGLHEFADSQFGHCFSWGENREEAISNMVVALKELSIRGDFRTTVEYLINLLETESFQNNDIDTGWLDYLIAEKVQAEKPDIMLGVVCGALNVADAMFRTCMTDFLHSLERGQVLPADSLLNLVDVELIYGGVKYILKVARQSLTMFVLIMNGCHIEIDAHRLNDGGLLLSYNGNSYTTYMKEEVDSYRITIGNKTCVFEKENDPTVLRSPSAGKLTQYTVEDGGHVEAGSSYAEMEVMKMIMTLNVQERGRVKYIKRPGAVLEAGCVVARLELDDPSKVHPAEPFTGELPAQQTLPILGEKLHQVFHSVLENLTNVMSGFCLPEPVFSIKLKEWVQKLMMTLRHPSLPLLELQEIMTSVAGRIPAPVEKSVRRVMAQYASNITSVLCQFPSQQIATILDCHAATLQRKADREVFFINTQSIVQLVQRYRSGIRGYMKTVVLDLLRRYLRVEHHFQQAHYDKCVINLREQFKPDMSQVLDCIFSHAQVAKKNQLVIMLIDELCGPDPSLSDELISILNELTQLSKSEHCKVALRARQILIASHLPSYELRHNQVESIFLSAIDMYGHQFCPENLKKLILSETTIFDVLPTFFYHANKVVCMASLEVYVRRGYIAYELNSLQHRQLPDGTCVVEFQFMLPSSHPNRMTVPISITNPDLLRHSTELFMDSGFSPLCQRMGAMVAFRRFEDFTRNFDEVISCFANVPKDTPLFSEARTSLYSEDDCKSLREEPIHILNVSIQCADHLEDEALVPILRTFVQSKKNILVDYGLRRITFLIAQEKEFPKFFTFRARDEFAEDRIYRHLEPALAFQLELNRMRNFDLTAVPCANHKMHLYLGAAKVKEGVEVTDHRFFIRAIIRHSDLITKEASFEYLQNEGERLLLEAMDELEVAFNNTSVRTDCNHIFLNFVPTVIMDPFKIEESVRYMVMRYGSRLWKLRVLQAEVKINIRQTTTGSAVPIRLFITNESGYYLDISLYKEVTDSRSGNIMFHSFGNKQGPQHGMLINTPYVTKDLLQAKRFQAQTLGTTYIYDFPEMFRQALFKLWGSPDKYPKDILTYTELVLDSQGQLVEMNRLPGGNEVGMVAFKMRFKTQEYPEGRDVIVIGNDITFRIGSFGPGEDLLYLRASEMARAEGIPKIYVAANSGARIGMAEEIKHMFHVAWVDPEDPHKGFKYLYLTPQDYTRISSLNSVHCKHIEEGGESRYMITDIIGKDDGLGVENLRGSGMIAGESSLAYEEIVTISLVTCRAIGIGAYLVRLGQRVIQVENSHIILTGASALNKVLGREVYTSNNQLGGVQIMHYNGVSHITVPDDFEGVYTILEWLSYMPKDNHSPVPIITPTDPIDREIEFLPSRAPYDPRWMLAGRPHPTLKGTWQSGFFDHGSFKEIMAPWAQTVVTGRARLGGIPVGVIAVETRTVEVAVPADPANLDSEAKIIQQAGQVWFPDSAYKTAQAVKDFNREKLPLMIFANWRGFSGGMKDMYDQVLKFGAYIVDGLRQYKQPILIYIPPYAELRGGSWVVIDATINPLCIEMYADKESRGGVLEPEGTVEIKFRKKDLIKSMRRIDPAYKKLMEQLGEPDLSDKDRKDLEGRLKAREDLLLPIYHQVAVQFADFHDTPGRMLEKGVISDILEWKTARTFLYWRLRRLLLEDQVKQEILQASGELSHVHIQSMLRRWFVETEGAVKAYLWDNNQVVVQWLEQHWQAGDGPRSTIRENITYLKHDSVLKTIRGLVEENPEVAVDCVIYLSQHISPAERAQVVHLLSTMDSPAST

What is called IC50 is the point on the concentration scale where inhibition reaches its midpoint. For the compound `CC(=O)N[C@@H](C)CC[C@H]1OC[C@H](Oc2nc3c(F)cc(OCC(F)F)c(F)c3n2C)CC1(F)F` [Compound I-9], the IC50 at recombinant human ACC1 came to 2600 nM; on recombinant human ACC2, 13 nM.

Turning to `COc1ccccc1[C@H](Cn1c(=O)n(C(C)(C)C(=O)O)c(=O)c2c(C)c(-c3ncco3)sc21)OC1CCOCC1` [firsocostat], in the series on NAFLD patients (phase II study over 12 weeks), the Plasma triglyceride concentration result was “elevated plasma triglyceride concentration”.

On to `C[C@@H](CO[C@H]1CC[C@H](Oc2nc3c(Cl)cc(OC4CC4)cc3n2C)CC1)NC(N)=O` [Compound I-8], for which the “Amount of compound remained, Human” value in series [1] came out at 83.6%. Besides, the figures for the IC50 on recombinant human ACC1 and on recombinant human ACC2 were 6200 nM and 17 nM, respectively. In addition, the “Amount of compound remained, Rat” value in series [2] amounted to 85.4%.

As to `CC(=O)N[C@@H](C)CO[C@H]1CC[C@H](Oc2nc3c(F)cc(OC4CCC4)cc3n2C)CC1` [Compound I-1], at recombinant human ACC1, the half-inhibitory concentration (IC50) was found to be 320 nM.

For `Cn1c(O[C@H]2CC[C@H](OC[C@H](CF)NC(N)=O)CC2)nc2c(F)cc(OC3CC3)cc21` [Compound I-5], the “Amount of compound remained, Human” value in series [1] amounted to 98.9%. Moreover, the results for the IC50 on recombinant human ACC1 and at recombinant human ACC2 were 6900 nM and 8.9 nM, respectively. In addition, in series [2], the “Amount of compound remained, Rat” value worked out at 83.4%.

In the case of `CC(=O)N[C@@H](C)CO[C@H]1CC[C@H](Oc2nc3c(Cl)cc(OC4CC4)cc3n2C)CC1` [Compound I-3], the “Amount of compound remained, Human” value in series [1] is reported as 80.3%. Moreover, the 50% inhibitory concentration (IC50) at recombinant human ACC1 turned out to be 2800 nM. Further, in series [2], the “Amount of compound remained, Rat” value is 82.6%.

Regarding `CC(=O)N[C@@H](CF)CO[C@H]1CC[C@H](Oc2nc3c(F)cc(OC4CC4)cc3n2C)CC1` [Compound I-4], in series [1], the “Amount of compound remained, Human” value was determined as 93.4%. Further, the half-maximal inhibitory concentration (IC50) at recombinant human ACC1 stood at 2700 nM; on recombinant human ACC2 it was 4.7 nM. In series [2], the “Amount of compound remained, Rat” value came to 87.3%.

For the compound `Cc1nc2ccc(C(=O)N3CCC4(CC3)CC(=O)c3c(cnn3C(C)C)C4)cc2[nH]1` [PF-05175157], the platelet concentration entry with healthy subjects is “reduced a platelet concentration”.

As to `C[C@@H](CCC1OCC(Oc2nc3c(F)cc(OCC(F)F)c(F)c3n2C)CO1)NC(N)=O` (stereo partly drawn) [Compound I-11], the “Amount of compound remained, Human” value in series [1] is reported as 95.8%. Also, the IC50 on recombinant human ACC1 is 7000 nM; on recombinant human ACC2, 9.6 nM. Besides, the “Amount of compound remained, Rat” value in series [2] is reported as 94.5%.

Take `COc1cc(C(=O)N2CCC3(CC2)CC(=O)c2cc(-c4cncc(C(=O)O)c4)ccc2O3)cc2c1c(C)cn2C1CC1` [MK-4074]: the Plasma triglyceride concentration entry in the series with NAFLD patients is reported as “elevated plasma triglyceride concentration”.

For `CC(=O)N[C@@H](C)CC[C@H]1OC[C@H](Oc2nc3c(F)cc(OCC(F)F)c(F)c3n2C)C[C@@H]1F` [Compound I-2], the IC50 at recombinant human ACC1 is 2400 nM; on recombinant human ACC2, 10 nM.

Consider `CC(=O)N[C@@H](C)CO[C@H]1CC[C@H](Oc2nc3c(F)cc(OCC(F)F)c(F)c3n2C)CC1` [Compound I-14], for which, in series [1], the “Amount of compound remained, Human” value is reported as 94.8%. Also, the IC50 worked out at 2700 nM on recombinant human ACC1 and 6.6 nM on recombinant human ACC2. The “Amount of compound remained, Rat” value in series [2] was determined as 78%.

In the case of `CC(=O)N[C@@H](C)CC(F)(F)[C@@H]1CC[C@@H](Oc2nc3c(F)cc(OCC(F)F)c(F)c3n2C)CO1` [Compound I-10], the IC50 at recombinant human ACC1 is more than 100000 nM; at recombinant human ACC2, 89 nM.

Take `CC(=O)N[C@@H](C)C(F)(F)C[C@H]1CC[C@H](Oc2nc3c(F)cc(OCC(F)F)c(F)c3n2C)CO1` [Compound I-6]: in series [1], the “Amount of compound remained, Human” value was 93.2%. For the same compound, the IC50 amounted to 920 nM on recombinant human ACC1 and 12 nM on recombinant human ACC2. Also, the “Amount of compound remained, Rat” value in series [2] is listed as 74%.

As for `CC(=O)N[C@H](C)C(F)(F)C[C@H]1CC[C@H](Oc2nc3c(F)cc(OCC(F)F)c(F)c3n2C)CO1` [Compound I-7], in series [1], the “Amount of compound remained, Human” value is reported as 89.1%. The IC50 at recombinant human ACC1 was 25000 nM; at recombinant human ACC2 it was 180 nM. Moreover, the “Amount of compound remained, Rat” value in series [2] stood at 74.7%.

With `CC(=O)N[C@@H](C)CO[C@H]1CC[C@H](Oc2nc3c(F)cc(OC4CC4)cc3n2C)CC1` [Compound I-15], the “Amount of compound remained, Human” value in series [1] worked out at 80.2%. Besides, the figures for the IC50 on recombinant human ACC1 and on recombinant human ACC2 were 1700 nM and 3.8 nM, respectively. Moreover, the “Amount of compound remained, Rat” value in series [2] was 76.2%.
